Assay results from patent publication US8338460B2, “2-pyridinecarboxamide derivative having GK-activating effect” (MSD K. K., priority 2006, dated 2012).
Converted amounts (≈) assume the structure as drawn.

Tests used:
[1] = Comparative test of solubility; format: physicochemical; details: water, thermodynamic from solid
[2] = target: T1, recombinant human liver GK (Homo sapiens, UniProt P35557); assay: Glucokinase-activating effect (Thio-NADH coupled assay with G6PDH); format: biochemical; details: 2.5 mM glucose, 30° C.
T1 construct: made in house; host or cells: E. coli
T1 sequence (P35557 1-466 isoform P35557-2): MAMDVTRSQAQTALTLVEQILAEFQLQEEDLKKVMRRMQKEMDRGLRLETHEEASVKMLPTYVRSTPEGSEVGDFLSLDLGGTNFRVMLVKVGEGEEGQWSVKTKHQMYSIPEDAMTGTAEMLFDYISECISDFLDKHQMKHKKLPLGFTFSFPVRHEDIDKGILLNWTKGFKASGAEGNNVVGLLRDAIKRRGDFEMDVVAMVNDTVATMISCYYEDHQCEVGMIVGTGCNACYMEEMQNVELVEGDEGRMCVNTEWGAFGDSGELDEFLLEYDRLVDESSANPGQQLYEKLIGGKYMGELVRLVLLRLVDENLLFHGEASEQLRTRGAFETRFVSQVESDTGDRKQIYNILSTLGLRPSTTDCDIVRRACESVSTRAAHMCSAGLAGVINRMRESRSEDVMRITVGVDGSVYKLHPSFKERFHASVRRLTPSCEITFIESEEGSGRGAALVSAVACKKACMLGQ
Text: Pharmacological Experiment 1 (Glucokinase-Activating Effect)
The excellent glucokinase-activating effect of the compounds of formula (I) may be determined by a method described in references (for example, Diabetes, Vol. 45, pp. 1671-1677, 1996), or in accordance with it.
The glucokinase activity may be determined not by directly measuring glucose-6-phosphate but by measuring the level of Thio-NADH, which is produced when a reporter enzyme, glucose-6-phosphate dehydrogenase produces phosphogluconolactone from glucose-6-phosphate, and based on the level, the degree of glucokinase activation by the compound tested may be determined.
In this assay, used was a recombinant human liver GK, which was expressed by E. coli as a FLAG fusion protein therein and was purified by ANTIFLAG M2 AFFINITY GEL (Sigma).
Using a flat-bottomed 96-well plate, the assay was carried out at 30° C. 69 μl of an assay buffer (25 mM Hepes Buffer/pH=7.2, 2 mM MgCl2, 1 mM ATP, 0.5 mM TNAD, 1 mM dithiothreitol) was put into the plate, and 1 μl of a DMSO solution of the compound or DMSO alone as a control was added thereto. Next, 20 μl of an enzyme mixture (FLAG-GK, 20 U/ml G6PDH) cooled in ice was added to it, and 10 μl of a substrate, 25 mM glucose was added to it, and the reaction was initiated (final glucose concentration=2.5 mM).
After the start of the reaction, the increase in the absorbance at 405 nm was measured for 12 minutes at intervals of 30 seconds, and the increase for the first 5 minutes was used for assessing the compound tested. FLAG-GK was added so that the absorbance increase after 5 minutes in the presence of 1% DMSO could be from 0.04 to 0.06.
The OD level of the DMSO control was set as 100%; and the OD level of the test compound at different concentrations was determined. From the OD level at each concentration, Emax (%) and EC50 (μM) were computed and used as the index of the GK-activating potency of the compound.

[3] = Comparative test of solubility; format: physicochemical; details: shaken 75 min; for solubility thermodynamic at 75 min: 200 mM potassium phosphate buffer, pH 7.4, aqueous buffer, read-out: Solibility to 200 mM potassium phosphate buffer; for solubility thermodynamic at 75 min / solubility at 75 min: thermodynamic from solid; for solubility at 75 min: JP-1 artificial gastric fluid, pH 1.2, simulated gastric fluid, JP-1 pH1.2 (artificial gastric fluid), 1 mg in 1 ml
Protocol: Experiment 3 (Comparative Test of Solubility)
1 mg of compounds were placed in 1 ml of medium (JP-1, […] potassium phosphate buffer) and was shaken on a shaking-incubator for 75 min. (1000 rpm). After centrifugation, concentration of supernatant was analyzed by HPLC.
JP1: pH1.2 (artificial gastric fluid: 35 mM NaCl, 84 mM HCl in water)
2.0 g of NaCl, 7.0 ml of HCl and water were mixed in a measuring flask (1000 ml).
200 mM potassium phosphate buffer: pH7.4
200 mM K2HPO4 and 200 mM KH2PO4 were mixed and adjusted to pH7.4 by using pH meter.

Male beagle dogs = assay: Pharmacological test in dog: plasma glucose after oral administration; format: in vivo; details: AUC for 4 hr after administration, fasted male beagle dogs
Protocol: Pharmacological Experiment 2 (Pharmacological Test in Dog)
Male beagle dogs (BW 9.6-13.8 kg) were fasted overnight. Pre-dose blood sampling was performed from cephalic vein. The test drugs, which were suspended into 0.5% methylcellulose, were orally administrated (example 1 at 0.25, 0.5 and 1 mg/kg, and example 4, and compound B at 1 mg/kg). Control group was given 0.5% methylcellulose alone. Blood was taken every 0.5 or 1 hour after the drug dosing. Plasma sample were obtained by centrifugation, and the plasma glucose levels were measured by “Determiner GL-E” (Kyowa Medex Co., Ltd. Japan).

SMILES	solubility at 75 min [1]	EC50 [2]	solubility thermodynamic at 75 min ([3]; pH7.4, 1 mg in 1 ml)	solubility at 75 min [3]	Solibility to 200 mM potassium phosphate buffer ([3]; pH7.4, 1 mg in 1 ml)	Emax ([2]; OD level of DMSO control set as 100%)	% Reduction of plasma glucose AUC (Male beagle dogs; 1 mg/kg oral)	% Reduction of plasma glucose AUC (Male beagle dogs; 0.25 mg/kg oral)	% Reduction of plasma glucose AUC (Male beagle dogs; 0.5 mg/kg oral)
Cc1nsc(NC(=O)c2nc(Sc3nncn3C)ccc2Sc2ccc(OC[C@@H]3CCCN3C)cc2)n1 [Example 7, 3-[(4-{[(2S)-1-methylpyrrolidin-2-yl]methoxy}phenyl)thio]-N-(3-methyl-1,2,4-thiadiazol-5-yl)-6-[(4-methyl-4H-1,2,4-triazol-3-yl)thio]pyridine-2-carboxamide]	0.583 mg/mL (≈ 1050 µM)	0.06 µM	0.308 mg/mL (≈ 555 µM)	> 1 mg/mL					
Cc1nsc(NC(=O)c2nc(Sc3nncn3C)ccc2Sc2ccc(CCO)cc2)n1 [(A), reference compound]	0.0024 mg/mL (≈ 4.94 µM)		0.0034 mg/mL (≈ 7 µM)	0.0062 mg/mL (≈ 12.8 µM)					
Cc1nsc(NC(=O)c2nc(Sc3nncn3C)ccc2Sc2ccc(OCCN(C)C)cc2)n1 [Example 1, 3-({4-[2-(dimethylamino)ethoxy]phenyl}thio)-N-(3-methyl-1,2,4-thiadiazol-5-yl)-6-[(4-methyl-4H-1,2,4-triazol-3-yl)thio]pyridine-2-carboxamide]	0.0152 mg/mL (≈ 28.8 µM)	0.09 µM	0.0175 mg/mL (≈ 33.1 µM)	> 1 mg/mL			15.7%	7.9%	10.6%
Cc1nsc(NC(=O)c2nc(Sc3nncn3C)ccc2Sc2ccc(OCCN3CCC[C@H]3C)cc2)n1 [Example 4]	0.0474 mg/mL (≈ 83.3 µM)	0.15 µM		> 1 mg/mL	47.3 µg/mL		26.8%		
Cc1nsc(NC(=O)c2nc(Sc3nncn3C)ccc2Sc2ccc(O[C@@H]3CCN(C(C)C)C3)cc2)n1 [Example 20, 3-[(4-{[(3R)-1-isopropylpyrrolidin-3-yl]oxy}phenyl)thio]-N-(3-methyl-1,2,4-thiadiazol-5-yl)-6-[(4-methyl-4H-1,2,4-triazol-3-yl)thio]pyridine-2-carboxamide]	0.127 mg/mL (≈ 223 µM)	0.04 µM	0.0868 mg/mL (≈ 153 µM)	> 1 mg/mL		964%			
Cc1nsc(NC(=O)c2nc(Sc3nnc[nH]3)ccc2Sc2ccc(OCCN(C)C)cc2)n1 [Compound (B), reference compound]							7.4%		

The next lines start with results.

solubility at 75 min [1]	EC50 [2]	solubility thermodynamic at 75 min ([3]; pH7.4, 1 mg in 1 ml)	solubility at 75 min [3]	Solibility to 200 mM potassium phosphate buffer ([3]; pH7.4, 1 mg in 1 ml)	Emax ([2]; OD level of DMSO control set as 100%)	SMILES	% Reduction of plasma glucose AUC (Male beagle dogs; 1 mg/kg oral)	% Reduction of plasma glucose AUC (Male beagle dogs; 0.25 mg/kg oral)	% Reduction of plasma glucose AUC (Male beagle dogs; 0.5 mg/kg oral)
0.0164 mg/mL (≈ 30.3 µM)	0.05 µM	0.0138 mg/mL (≈ 25.5 µM)	> 1 mg/mL			CCN1CC(Oc2ccc(Sc3ccc(Sc4nncn4C)nc3C(=O)Nc3nc(C)ns3)cc2)C1 [Example 25, 3-({4-[(1-ethylazetidin-3-yl)oxy]phenyl}thio)-N-(3-methyl-1,2,4-thiadiazol-5-yl)-6-[(4-methyl-4H-1,2,4-triazol-3-yl)thio]pyridine-2-carboxamide]	42.1%		
0.208 mg/mL (≈ 383 µM)	0.06 µM	0.122 mg/mL (≈ 226 µM)	> 1 mg/mL			CCN(C)CCOc1ccc(Sc2ccc(Sc3nncn3C)nc2C(=O)Nc2nc(C)ns2)cc1 [Example 23, 3-[(4-{2-[ethyl(methyl)amino]ethoxy}phenyl)thio]-N-(3-methyl-1,2,4-thiadiazol-5-yl)-6-[(4-methyl-4H-1,2,4-triazol-3-yl)thio]pyridine-2-carboxamide]			
0.23 mg/mL (≈ 414 µM)	0.04 µM	0.298 mg/mL (≈ 536 µM)	> 1 mg/mL			CCN(CC)CCOc1ccc(Sc2ccc(Sc3nncn3C)nc2C(=O)Nc2nc(C)ns2)cc1 [Example 24, 3-({4-[2-(diethylamino)ethoxy]phenyl}thio)-N-(3-methyl-1,2,4-thiadiazol-5-yl)-6-[(4-methyl-4H-1,2,4-triazol-3-yl)thio]pyridine-2-carboxamide]			
0.176 mg/mL (≈ 309 µM)	0.07 µM	0.239 mg/mL (≈ 421 µM)	> 1 mg/mL			Cc1nsc(NC(=O)c2nc(Sc3nncn3C)ccc2Sc2ccc(OCCN3CCCCC3)cc2)n1 [Example 26, N-(3-methyl-1,2,4-thiadiazol-5-yl)-6-[(4-methyl-4H-1,2,4-triazol-3-yl)thio]-3-{[4-(2-piperidin-1-ylethoxy)phenyl]thio}pyridine-2-carboxamide]			
